# Data reported in patent publication US7947505B2, “Method for testing efficacy of antithrombotic agent” (priority 2005, dated 2011).
# Where two headings read alike, the source gives them in different places.
# Key:
# blood [1] = settings: Hep 0.1 U/mL, ARG 0.3 μg/mL, Col 10 μg/mL, ADP 8.3 μM/L, cited from earlier work
# blood [2] = assay: Thromboelastograph of blood with no antithrombotic agent administered, with heparin or argatroban with or without ADP or collagen added; format: cell-based, human; settings: for change of the R value lengthened by anticoagulant when ADP or collagen is added: blood coagulation function normal, no antithrombotic agent administered, heparin or argatroban present
# Text: (§1) The present invention is described below based on embodiments. The thromboelastograph will be described first. A thromboelastograph is an apparatus that tracks the process of blood coagulation by the clot elasticity in whole blood. […] The reaction time R representing the time when the range of the clot elasticity value reaches 2 mm, the coagulation time K representing the time when the range of the clot elasticity value reaches 20 mm, the maximum amplitude MA of the range of the clot elasticity values, the angle ANG formed by a tangent drawn on the graph of the changes in clot elasticity, and the like are obtained as numerical values based on the measurement chart, as shown in FIG. 1. The measurement procedure itself merely comprises placing the blood in a cuvette and beginning measurement. A C-TEG3000T machine made by Haemoscope of the United States was used as the thromboelastograph in the examples below.
# (§2) The test method using the thromboelastograph will be described next in itemized form. 1) A thromboelastograph is used in measurement. The thromboelastograph used is one in which the measurement part has two or more channels, and the amount of fluid measured is 0.36 mL. 2) The blood of the patient being administered an antithrombotic agent is sampled by a blood sampling tube for coagulation testing. […] 3) 0.02 mL of 0.2 M calcium chloride and 0.32 mL of blood from the blood sampling tube are mixed with 0.01 mL of anticoagulant and 0.01 mL of physiological saline in the first measurement part (first channel) of the thromboelastograph. The calcium chloride neutralizes the citric acid admixed in the blood sampling tube, and coagulation begins. 4) 0.02 mL of 0.2 M calcium chloride and 0.32 mL of blood from the blood sampling tube are mixed with 0.01 mL of anticoagulant and 0.01 mL of adenosine diphosphate (ADP) or collagen in the second measurement part (second channel) of the thromboelastograph. The adenosine diphosphate (ADP) used here is 0.2 μmol of commercial reagent powder dissolved in 0.67 mL of physiological saline. Similarly, the collagen is 1 mg/mL stock solution diluted to a 36% solution by physiological saline. 5) The first channel and second channel are measured simultaneously by the thromboelastograph, and the R values measured on the thromboelastograph are compared. […] It is necessary in this case to strengthen the antithrombotic effect by measures such as increasing the dose or changing the antithrombotic agent being administered. The platelets in the second channel are believed to be readily activated by the ADP or collagen, and blood coagulation is accelerated. […] It is believed in this case that the platelets in the second channel are not readily activated by the ADP or collagen, and blood coagulation is not accelerated.
# (§3) In the following examples and comparative examples, the addition of 0.02 mL of physiological saline of 0.2 M calcium chloride to the sampled blood and the addition of […] to the system without ADP or collagen added are common to all examples and are omitted from the explanations of each example and comparative example.
# An example of the administration of sulpyrine will be described next. […] The measurement was the same as in Example 1. Blood with 0.1 U/mL of heparin or 0.31 μg/mL of argatroban added and blood with 8.3 μM of ADP or 10 μg/mL of collagen added to these were measured simultaneously by using a thromboelastograph.
# An example of the administration of Pletaal will be described next. […] The amounts of heparin, argatroban, ADP, and collagen added were the same as in Example 2.
# As a comparative example, blood obtained when no thrombotic agent (*1) had been administered was measured by thromboelastograph. Specifically, systems of heparin, ADP, and collagen added to blood that contained no thrombotic agent and, similarly, systems of argatroban, ADP, and collagen added to blood that contained no thrombotic agent were measured using a thromboelastograph.
# [3] = test system: blood sampled from a patient being administered an antithrombotic agent; assay: Thromboelastograph of blood sampled after administration of an antithrombotic agent, with anticoagulant with or without ADP or collagen added; format: in vivo, human; settings: for R value: ADP 8.3 μM, collagen 10 μg/mL
# Text: as §1, §2, §3
# An example of the administration of aspirin as an antithrombotic agent will be described. First, 81 mg/day of aspirin was administered for three days. Blood sampled one hour after oral administration of 40.5 mg of aspirin thereafter was measured using a thromboelastograph. Specifically, thromboelastographic measurements were simultaneously carried out on the sampled blood itself, the same blood with 0.1 U/mL of heparin or 0.31 μg/mL of argatroban added, and blood obtained by adding 8.3 μM of ADP or 10 μg/mL of collagen to these.
# Also, 660 mg/day of aspirin was administered for three days, and the blood sampled one hour after oral administration of 330 mg thereafter was measured in the same manner by using a thromboelastograph. […]
# whole blood = settings: ADP final concentration 8.3 μM or collagen 10 μg/mL, mean±standard deviation, cited from earlier work; for M A (maximum amplitude): in mm (unit assumed)
# [4] = Comparative Example, blood with no antithrombotic agent administered
# [5] = no Pletaal administered (Example 3), heparin 0.1 U/mL, argatroban 0.31 μg/mL, ADP 8.3 μM, collagen 10 μg/mL
# [6] = no sulpyrine administered (Example 2), heparin 0.1 U/mL, argatroban 0.31 μg/mL, ADP 8.3 μM, collagen 10 μg/mL
compound,measurement,setting,value
"CC1CNc2c(cccc2S(=O)(=O)N[C@@H](CCCNC(=N)N)C(=O)N2CC[C@@H](C)C[C@@H]2C(=O)O)C1 (stereo partly shown) [ARG, argatroban]",A N G (rapidity of clot formation),blood [1],44.5 ± 14.6
same,K,blood [1],9.8 ± 5.1
same,R,blood [1],29.8 ± 11.5
same,K,blood [1]; listed as argatroban,lengthen
same,R,blood [1]; listed as argatroban,lengthen
same,R value,blood [2]; [4],29.8 ± 11.5
same,R value,"blood [2]; Comparative Example, blood with no antithrombotic agent administered, listed as argatroban",lengthens
same,R value,blood [2]; [5],29.7 ± 10.5
same,R value,blood [2]; [6],29.8 ± 9.5
"Cc1c(N(C)CS(=O)(=O)[O-])c(=O)n(-c2ccccc2)n1C.[Na+] [Sulp, sulpyrine]",assessment of efficacy of the administered dose (R value shortened by ADP and collagen or not),[3]; 250 mg of sulpyrine injected intramuscularly,functions adequately
same,R value,"[3]; blood sampled one hour after intramuscular injection of 250 mg of sulpyrine, heparin 0.1 U/mL, argatroban 0.31 μg/mL",6.9 ± 2.1
"O=C1CCc2cc(OCCCCc3nnnn3C3CCCCC3)ccc2N1 [Cil, cilostazol]",assessment of efficacy of the administered dose (R value shortened by ADP and collagen or not),[3]; 200 mg/day of Pletaal,functions adequately
same,R value,"[3]; 200 mg/day of Pletaal for five days, blood sampled one hour after oral 100 mg, heparin 0.04 U/mL, argatroban 0.06 μg/mL",14.5 ± 3.7
same,time until the blood begins to coagulate,"[3]; Pletaal administered, 0.1 U/mL of heparin and 0.31 μg/mL of argatroban used, R value could not be determined",more than 3 hours
collagen [Col.],K (time it takes a clot to be formed),whole blood; in min (unit assumed),2.5 ± 0.5
same,R (time it takes for fibrin to be formed),whole blood; in min (unit assumed),5.3 ± 1.4
same,M A (maximum amplitude),whole blood,57.9 ± 3.9
same,K (time it takes a clot to be formed),whole blood; listed as collagen,no significant difference
same,R (time it takes for fibrin to be formed),whole blood; listed as collagen,shortens significantly
same,R + K,whole blood; listed as collagen,shortens significantly
same,R + K,whole blood,7.8 ± 1.5
same,change of the R value lengthened by anticoagulant when ADP or collagen is added,blood [2],shortens significantly
"CC(=O)Oc1ccccc1C(=O)O [ASP, aspirin]",assessment of efficacy of the administered dose (R value shortened by ADP and collagen or not),[3]; 81 mg/day of aspirin for three days,insufficient to function effectively
same,R value,"[3]; 81 mg/day of aspirin for three days, blood sampled one hour after oral 40.5 mg, heparin 0.1 U/mL, argatroban 0.31 μg/mL",6.4 ± 1.5
same,assessment of efficacy of the administered dose (R value shortened by ADP and collagen or not),[3]; 660 mg/day of aspirin for three days,function adequately
same,R value,"[3]; 660 mg/day of aspirin for three days, blood sampled one hour after oral 330 mg, heparin 0.1 U/mL, argatroban 0.31 μg/mL",6.67 ± 1.7
"Nc1ncnc2c1ncn2[C@@H]1O[C@H](COP(=O)(O)OP(=O)(O)O)[C@@H](O)[C@H]1O [ADP, adenosine diphosphate]",M A (maximum amplitude),whole blood,57.9 ± 2.6
same,change of the R value lengthened by anticoagulant when ADP or collagen is added,blood [2],shortens significantly
heparin,A N G (rapidity of clot formation),blood [1],39.1 ± 13.9
same,K,blood [1],11.4 ± 6.2
same,R,blood [1],26.4 ± 10.6
same,K,blood [1]; listed as heparin,lengthen
same,R,blood [1]; listed as heparin,lengthen
same,R value,blood [2]; [4],26.4 ± 10.6
same,R value,"blood [2]; Comparative Example, blood with no antithrombotic agent administered, listed as heparin",lengthens
same,R value,blood [2]; [5],28.6 ± 9.5
same,R value,blood [2]; [6],26.4 ± 10.6
